Assay results: patent US20020025929A1, “METHOD OF BUILDING AND MAINTAINING BONE” (priority 1997, published 2002)
Marks after values point to notes of the source that are not given here.

Legend:
[1] = tested on: osteopenic ovariectomized rats; test: Longitudinal pQCT of proximal tibial metaphysis; format: in vivo, Sprague-Dawley rats; details: OVX rats, FIG. 1
Protocol: The metaphysis of proximal tibiae were scanned longitudinally from baseline, using a 960A pQCT loaded with Dichte software version 5.2 (Norland/Stratec, Ft. Atkinson, Wis.), using the technique described by Sato et al., —1995, JPET 272:1252-1259; Sato 1995, Bone 17:157S-162S). Volumetric bone mineral density (BMD, mg/cm3), cross-sectional area (X-Area), voxel number, and mineral content (BMC, mg) were quantitated for the whole cross-section of the metaphysis. Sites of excised bones were analyzed at higher resolution, using a micro-CT (Stratec). Specifically, distal femora (below the condyles, see Sato et al. 1995) and L-3 vertebra (mid-cross section, Helterbrand et al., 1997, Bone 21:401-409) were analyzed using voxel dimensions of 50 ×50×1000 μm and 70×70×1000 μm, respectively.
(§1) In a second study, virgin Sprague-Dawley rats were bilaterally ovariectomized (except for the sham-operated group), the ovariectomized animals randomized, and allowed to lose bone for one month prior to treatment in the manner described above. The animal groups, each containing 7-8 animals, included sham-operated animals (SHAM); bilaterally ovariectomized animals (OVX); bilaterally ovariectomized animals treated with 0.01, 0.3 or 1 mg/kg/day of compound 1a, respectively, for three months; bilaterally ovariectomized animals treated subcutaneously with PTH(1-34) at a dose of 10 μg/kg/day for three months; bilaterally ovariectomized animals treated subcutaneously with PTH(1-34) at a dose of 10 μg/kg/day and orally with compound 1a at a dose of 0.3 mg/kg/day, both compounds administered for three months; bilaterally ovariectomized animals treated subcutaneously with PTH(1-34) at a dose of 10 μg/kg/day for forty-five days followed by gavage administration of vehicle for forty-five days; bilaterally ovariectomized animals treated subcutaneously with PTH(1-34) at a dose of 10 μg/kg/day for forty-five days followed by oral administration of only compound 1a at a dose of 0.3 mg/kg/day for forty-five days; and bilaterally ovariectomized animals treated with 17α-ethynyl estradiol administered orally at a dose of 0.1 mg/kg/day.
In the second study, the proximal tibial metaphysis was scanned longitudinally by pQCT for rats from baseline.
Treatment, as indicated, was initiated after 1 month postovariectomy and continued for the following 3 months. Specifically, administration of compound 1a alone(closed triangles), PTH (1-34) alone (open triangles), in combination (closed squares), or in sequence (closed diamonds) were compared to OVX (open circles), Sham (closed circles), and estrogen (EE2, open diamonds) controls.

[2] = tested on: osteopenic ovariectomized rats; test: Static and dynamic histomorphometry of L-1 vertebra; format: in vivo, Sprague-Dawley rats; details: OVX rats; for BFR/BS (bone formation rate) / BFR/TV (bone formation rate) / BV/TV (cancellous bone volume) / MAR (mineral apposition rate) / MS/BS (mineralizing surface) / Tb.N (trabecular number) / Tb.Sp (trabecular separation) / Tb.Th (trabecular thickness): L-1 vertebra, mean ± SEM; for BV/TV, trabecular thickness, trabecular number of L-1 vertebra (in words): second study; for MAR of L-1 vertebra (in words): compound 1a 0.01-1 mg/kg, EE2
Protocol: Oral administration was by gavage in a vehicle comprising 1 mL/kg of body weight of a 20% aqueous solution of hydroxypropyl-β-cyclodextrin. Compound 1a was administered by gavage in a vehicle of 1 mL/kg of body weight of a 20% aqueous solution of cyclodextrin. The estrogen-treated control animals were administered 0.1 mg/kg/day 17α-ethynyl estradiol by gavage.
Subcutaneous administration of PTH(1-34) was by injection of an acidified saline vehicle (0.001 N HCl and 2% heated-inactivated rat serum in physiological saline (Butler Co., Columbus, Ohio, USA).
For histomorphometry, L-1 vertebra were trimmed, using a low-speed diamond saw (Buehler Ltd., Lake Bluff, Ill.) and fixed in 70% ethanol. Specimens were stained for 4 days in Villanueva osteochrome bone stain (Polysciences Inc., Warrington, Pa.), destained, dehydrated in a graded series of alcohols, and defatted in acetone. L-1 vertebra were then infiltrated with methyl methacrylate (as described by Schenk et al. 1984) and embedded in a 75 ml: 19 ml: 2.5 g mixture of methyl methacrylate: dibutyl phthalate: benzoyl peroxide (Kodak, Rochester, N.Y.) and polymerized at room temperature. Longitudinal sections (4 and 8 μm) were cut on a Reichert-Jung 2065 microtome (Magee Scientific Inc., Dexter, Mich.). The 4 μm sections were stained with 6% silver nitrate (Von Kossa stain) before coverslipping; the 8 μm thick sections were mounted unstained for dynamic measurements. Sections were glued onto slides dipped in 0.5% gelatin, dried overnight, and coverslipped with Eukitt.
Histomorphometric measurements were made using an Optiphot-2 fluorescence microscope (Nikon, Melville, N.Y.) and a semi-automatic digitizing system (SummaSketch III, Summagraphics Co., Seymour, Conn.; KSS Image Analysis, KSS Scientific Consultants, Magna Utah) coupled to a PowerPC 7100/66 (Apple Computer, Cupertino, Calif.), using the image capture functions of NIH Image 1.59 (NIH, Bethesda, Md.). For L-1, the entire marrow region within the cortical shell was measured to derive trabecular bone parameters. Specifically, measurements were made of cancellous bone volume (BV/TV, %), trabecular thickness (Tb.Th, μm), number (Tb.N, #/mm) and separation (Tb.Sp, μm), mineralizing surface, mineral apposition rate, and bone formation rate, as previously described (Frost 1983; Jee et al. 1985; Parfitt et al., 1987).
as §1

[3] = treated continuously 3 months (90 days), at termination, 1a 0.01, 0.3, 1.0 mg/kg, EE2 0.1 mg/kg, PTH (1-34) 10 μg/kg
[4] = Cmpd 1a 0.01 mg/kg/day oral, 3 months
[5] = Cmpd 1a 0.3 mg/kg/day oral, 3 months
[6] = Cmpd 1a 1 mg/kg/day oral, 3 months
[7] = 3 months: PTH (1-34) 10 μg/kg/day s.c., PTH + 1a 0.3 mg/kg/day oral, EE2 0.1 mg/kg/day oral
[8] = PTH (1-34) 10 μg/kg/day s.c. 45 days, then vehicle or 1a 0.3 mg/kg/day oral 45 days

Compound: COc1ccc(-c2sc3cc(O)ccc3c2Oc2ccc(OCCN3CCCCC3)cc2)cc1 [Compound 1a, 6-hydroxy-2-(4-methoxyphenyl)-3-[4-(2-piperidin-1-ylethoxy)phenoxy]-benzo[b]thiophene]
- volumetric BMD of proximal tibial metaphysis (pQCT) [1, 3]: prevented further bone loss and had BMD significantly greater than OVX at termination
- BFR/BS (bone formation rate) [2, 4]: 11.45 ± 1.9 μ/d × 100
- BFR/TV (bone formation rate) [2, 4]: 40.30 ± 11.41 %/y
- BV/TV (cancellous bone volume) [2, 4]: 24.4 ± 5.9^s %
- MAR (mineral apposition rate) [2, 4]: 0.72 ± .06 μ/d
- MS/BS (mineralizing surface) [2, 4]: 15.90 ± 2.21^s.o %
- Tb.N (trabecular number) [2, 4]: 5.77 ± 1.2^s #/mm
- Tb.Sp (trabecular separation) [2, 4]: 137.6 ± 37^s μ
- Tb.Th (trabecular thickness) [2, 4]: 42.4 ± 6 μ
- BFR/BS (bone formation rate) [2, 5]: 9.48 ± 1.43^o μ/d × 100
- BFR/TV (bone formation rate) [2, 5]: 35.51 ± 9.14 %/y
- BV/TV (cancellous bone volume) [2, 5]: 22.3 ± 3^s %
- MAR (mineral apposition rate) [2, 5]: 0.66 ± .11 μ/d
- MS/BS (mineralizing surface) [2, 5]: 14.47 ± 1.78^o %
- Tb.N (trabecular number) [2, 5]: 6.07 ± .87^s #/mm
- Tb.Sp (trabecular separation) [2, 5]: 131 ± 23^s.o μ
- Tb.Th (trabecular thickness) [2, 5]: 36.8 ± 3^s μ
- BFR/BS (bone formation rate) [2, 6]: 9.44 ± 2.4^o μ/d × 100
- BFR/TV (bone formation rate) [2, 6]: 29.94 ± 8.7 %/y
- BV/TV (cancellous bone volume) [2, 6]: 22.1 ± 5.2^s %
- MAR (mineral apposition rate) [2, 6]: 0.72 ± .08 μ/d
- MS/BS (mineralizing surface) [2, 6]: 13.05 ± 2.44^s %
- Tb.N (trabecular number) [2, 6]: 5.24 ± .82^s #/mm
- Tb.Sp (trabecular separation) [2, 6]: 153.1 ± 35^s μ
- Tb.Th (trabecular thickness) [2, 6]: 42.4 ± 7.3 μ
- dynamic parameters MS/BS, MAR, BFR/BS, BFR/TV of L-1 vertebra (in words) ([2]; continuous treatment): decreased MS/BS and BFR in a dose-dependent manner to Sham and EE2 levels
- BV/TV, trabecular thickness, trabecular number of L-1 vertebra (in words) ([2]; continuous treatment): little effect on BV/TV, trabecular thickness, or trabecular number
- MAR of L-1 vertebra (in words) ([2]; continuous treatment): not different from OVX

Compound: C#C[C@]1(O)CC[C@H]2[C@@H]3CCc4cc(O)ccc4[C@H]3CC[C@@]21C [EE2, 17α-ethynyl estradiol]
- volumetric BMD of proximal tibial metaphysis (pQCT) [1, 3]: BMD significantly greater than OVX at termination
- BFR/BS (bone formation rate) [2, 7]: 8.76 ± 1.99^o μ/d × 100
- BFR/TV (bone formation rate) [2, 7]: 32.76 ± 6.9 %/y
- BV/TV (cancellous bone volume) [2, 7]: 21.8 ± 4.1^s %
- MAR (mineral apposition rate) [2, 7]: 0.58 ± .05^s.o μ/d
- MS/BS (mineralizing surface) [2, 7]: 14.97 ± 3.07^o %
- Tb.N (trabecular number) [2, 7]: 6.20 ± .66 #/mm
- Tb.Sp (trabecular separation) [2, 7]: 127.5 ± 17.5 μ
- Tb.Th (trabecular thickness) [2, 7]: 35.3 ± 5.6^s μ
- BV/TV, trabecular thickness, trabecular number of L-1 vertebra (in words) ([2]; continuous treatment): little effect on BV/TV, trabecular thickness, or trabecular number
- MAR of L-1 vertebra (in words) ([2]; continuous treatment): lowered MAR to below OVX, Sham, and compound 1a

Compound: PTH: N-terminal 1-34 fragment of human parathyroid hormone, hPTH(1-34, Sequence ID No. 3); PTH/vehicle = 45 days PTH then vehicle
- volumetric BMD of proximal tibial metaphysis (pQCT) ([1]; PTH (1-34) 45 days then discontinued or switched to compound 1a, at termination): BMD decreased to significantly below Sham
- volumetric BMD of proximal tibial metaphysis (pQCT) ([1]; after PTH (1-34) for 45 days): regained BMD to Sham levels
- BFR/BS (bone formation rate) [2, 7]: 25.1 ± 5^s,o μ/d × 100
- BFR/TV (bone formation rate) [2, 7]: 94.5 ± 29.7^s.o %/y
- BV/TV (cancellous bone volume) [2, 7]: 38.9 ± 9^o %
- MAR (mineral apposition rate) [2, 7]: 1.0 ± .11^s,o μ/d
- MS/BS (mineralizing surface) [2, 7]: 24.82 ± 2.62^s,o %
- Tb.N (trabecular number) [2, 7]: 6.07 ± .86^s #/mm
- Tb.Sp (trabecular separation) [2, 7]: 104.1 ± 29^o μ
- Tb.Th (trabecular thickness) [2, 7]: 63.8 ± 11^s,o μ
- BFR/BS (bone formation rate) [2, 8]: 17.68 ± 5.9^s μ/d × 100
- BFR/TV (bone formation rate) [2, 8]: 55.17 ± 20.3^s %/y
- BV/TV (cancellous bone volume) [2, 8]: 20.1 ± 3.9^s %
- MAR (mineral apposition rate) [2, 8]: 0.89 ± .09^s,o μ/d
- MS/BS (mineralizing surface) [2, 8]: 19.62 ± 4.88^s %
- Tb.N (trabecular number) [2, 8]: 5.16 ± .98^s #/mm
- Tb.Sp (trabecular separation) [2, 8]: 160 ± 32^s μ
- Tb.Th (trabecular thickness) [2, 8]: 39.4 ± 7^s μ
- dynamic parameters MS/BS, MAR, BFR/BS, BFR/TV of L-1 vertebra (in words) ([2]; PTH (1-34) discontinued (PTH/v) or switched to compound 1a (PTH/0.3) at 45 days): lowered MS/BS, BFR/BS and BFR/TV to OVX levels
- BV/TV and trabecular thickness of L-1 vertebra (in words) ([2]; PTH (1-34) discontinued or switched to compound 1a at 45 days): decreased BV/TV and trabecular thickness to below Sham
- dynamic parameters MS/BS, MAR, BFR/BS, BFR/TV of L-1 vertebra (in words) ([2]; continuous treatment): increased MS/BS, MAR, BFR/BS and BFR/TV to significantly above Sham and OVX
- BV/TV, trabecular thickness, trabecular number of L-1 vertebra (in words) ([2]; continuous treatment): improved BV/TV and trabecular thickness above OVX
